Data: ChEMBL document CHEMBL1144998, “C(8) substituted 1-azabicyclo[3.3.1]non-3-enes and C(8) substituted 1-azabicyclo[3.3.1]nonan-4-ones: novel muscarinic receptor antagonists” (J Med Chem, 2003)

Experiments:
[1] = biological target: T1, Muscarinic acetylcholine receptor M1 (Homo sapiens, UniProt P11229); test: Binding affinity of compound was determined towards human Muscarinic acetylcholine receptor M1 using [3H]QNB radioligand
T1 sequence (P11229 whole entry): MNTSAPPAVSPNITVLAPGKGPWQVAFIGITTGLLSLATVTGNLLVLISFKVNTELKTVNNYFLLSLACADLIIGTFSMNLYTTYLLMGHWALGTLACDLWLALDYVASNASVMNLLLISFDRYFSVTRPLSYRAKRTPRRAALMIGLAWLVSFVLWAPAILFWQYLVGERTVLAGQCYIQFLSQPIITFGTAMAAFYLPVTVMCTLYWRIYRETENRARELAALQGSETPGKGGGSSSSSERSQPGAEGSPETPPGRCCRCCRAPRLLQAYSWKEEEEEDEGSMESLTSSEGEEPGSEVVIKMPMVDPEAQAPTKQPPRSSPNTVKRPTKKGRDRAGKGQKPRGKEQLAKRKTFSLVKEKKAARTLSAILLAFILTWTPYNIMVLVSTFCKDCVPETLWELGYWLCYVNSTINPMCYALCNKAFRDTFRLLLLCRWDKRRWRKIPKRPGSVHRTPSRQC

[2] = biological target: T2, Muscarinic acetylcholine receptor M5 (Homo sapiens, UniProt P08912); test: Binding affinity of compound was determined towards human Muscarinic acetylcholine receptor M5 using [3H]QNB radioligand
T2 sequence (P08912 whole entry): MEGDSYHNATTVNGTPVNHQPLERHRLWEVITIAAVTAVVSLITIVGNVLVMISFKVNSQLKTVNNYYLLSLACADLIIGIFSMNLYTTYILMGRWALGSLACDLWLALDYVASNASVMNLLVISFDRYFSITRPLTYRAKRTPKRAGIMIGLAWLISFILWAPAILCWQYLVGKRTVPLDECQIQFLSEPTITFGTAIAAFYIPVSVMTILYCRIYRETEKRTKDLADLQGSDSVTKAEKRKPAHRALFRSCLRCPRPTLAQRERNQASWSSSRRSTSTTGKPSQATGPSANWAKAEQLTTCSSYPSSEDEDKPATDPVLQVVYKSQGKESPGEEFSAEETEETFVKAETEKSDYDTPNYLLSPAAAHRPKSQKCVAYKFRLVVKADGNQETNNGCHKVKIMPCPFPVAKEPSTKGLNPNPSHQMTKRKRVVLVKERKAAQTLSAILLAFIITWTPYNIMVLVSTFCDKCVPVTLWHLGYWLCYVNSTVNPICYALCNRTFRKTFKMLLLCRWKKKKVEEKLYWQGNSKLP

[3] = biological target: Muscarinic acetylcholine receptor M3 (Homo sapiens, UniProt P20309); test: Binding affinity of compound was determined towards human Muscarinic acetylcholine receptor M3 using [3H]QNB radioligand
[4] = biological target: T3, Muscarinic acetylcholine receptor M2 (Homo sapiens, UniProt P08172); test: Binding affinity of compound was determined towards human Muscarinic acetylcholine receptor M2 using [3H]QNB radioligand
T3 sequence (P08172 whole entry): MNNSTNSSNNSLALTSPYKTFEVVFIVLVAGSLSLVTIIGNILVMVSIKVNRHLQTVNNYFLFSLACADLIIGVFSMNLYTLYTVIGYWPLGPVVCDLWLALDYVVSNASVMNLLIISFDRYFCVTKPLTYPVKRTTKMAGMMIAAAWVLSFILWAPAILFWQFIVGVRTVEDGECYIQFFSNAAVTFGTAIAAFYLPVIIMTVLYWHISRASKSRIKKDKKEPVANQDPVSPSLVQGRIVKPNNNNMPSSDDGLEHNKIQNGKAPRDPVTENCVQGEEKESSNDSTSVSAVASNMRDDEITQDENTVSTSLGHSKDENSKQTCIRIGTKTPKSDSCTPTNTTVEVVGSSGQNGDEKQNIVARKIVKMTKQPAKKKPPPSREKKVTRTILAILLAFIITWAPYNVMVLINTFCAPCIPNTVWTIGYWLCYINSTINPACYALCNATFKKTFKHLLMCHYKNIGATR

[5] = biological target: T4, Muscarinic acetylcholine receptor M4 (Homo sapiens, UniProt P08173); test: Binding affinity of compound was determined towards human Muscarinic acetylcholine receptor M4 using [3H]QNB radioligand
T4 sequence (P08173 whole entry): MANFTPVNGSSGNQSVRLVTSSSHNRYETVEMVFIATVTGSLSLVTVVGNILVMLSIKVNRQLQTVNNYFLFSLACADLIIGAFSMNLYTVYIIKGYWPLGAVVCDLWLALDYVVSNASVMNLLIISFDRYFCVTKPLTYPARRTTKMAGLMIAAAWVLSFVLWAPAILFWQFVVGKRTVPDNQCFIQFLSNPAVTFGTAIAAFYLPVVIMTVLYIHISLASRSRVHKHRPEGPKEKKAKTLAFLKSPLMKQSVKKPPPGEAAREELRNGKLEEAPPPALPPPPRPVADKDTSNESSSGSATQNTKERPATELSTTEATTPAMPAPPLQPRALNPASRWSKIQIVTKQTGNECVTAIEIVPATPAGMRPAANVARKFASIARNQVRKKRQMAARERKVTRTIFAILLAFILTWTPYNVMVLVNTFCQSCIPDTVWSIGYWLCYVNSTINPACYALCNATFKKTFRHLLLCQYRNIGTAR

Muscarinic acetylcholine receptor M3, sequence (P20309 whole entry): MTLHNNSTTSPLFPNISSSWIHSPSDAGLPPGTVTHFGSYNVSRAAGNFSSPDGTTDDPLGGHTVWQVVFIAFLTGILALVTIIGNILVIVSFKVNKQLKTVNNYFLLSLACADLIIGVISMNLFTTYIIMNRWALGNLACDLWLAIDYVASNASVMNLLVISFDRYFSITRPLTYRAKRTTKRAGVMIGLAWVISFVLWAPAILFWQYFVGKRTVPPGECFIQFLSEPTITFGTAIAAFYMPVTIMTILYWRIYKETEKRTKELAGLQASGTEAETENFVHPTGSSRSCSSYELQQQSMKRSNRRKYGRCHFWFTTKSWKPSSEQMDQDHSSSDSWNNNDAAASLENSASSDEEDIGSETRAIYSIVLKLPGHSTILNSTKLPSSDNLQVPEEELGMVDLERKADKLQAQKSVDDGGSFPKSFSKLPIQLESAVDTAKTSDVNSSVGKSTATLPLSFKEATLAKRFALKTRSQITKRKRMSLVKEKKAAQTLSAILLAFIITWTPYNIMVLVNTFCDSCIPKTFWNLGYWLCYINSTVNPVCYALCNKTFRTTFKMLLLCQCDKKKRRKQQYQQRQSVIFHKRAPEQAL

CCO/C(O)=C1\CN2CCCC(C2)C1=O (configuration not stated)
Ki [1]: 1.2 µM
Ki [2]: 0.98 µM
Ki [3]: 1.5 µM
Ki [4]: 1.6 µM
Ki [5]: 2.6 µM

CCO/C(O)=C1\CN2CC(CCC2COCc2ccccc2)C1=O (stereo in doubt; 3)
Ki [1]: 0.25 µM
Ki [2]: 0.56 µM
Ki [3]: 0.84 µM
Ki [4]: 0.08 µM
Ki [5]: 0.27 µM

CCO/C(O)=C1\CN2CC(CCC2COCc2ccccc2)C1=O (stereo in doubt; 4)
Ki [1]: 6.6 µM
Ki [2]: 3 µM
Ki [3]: 7.5 µM
Ki [4]: 4.1 µM
Ki [5]: 11 µM

CCO/C(O)=C1\CN2CC(CCC2CN(C)C)C1=O (stereo in doubt; 5)
Ki [1]: > 100 µM
Ki [2]: > 100 µM
Ki [3]: > 100 µM
Ki [4]: 86 µM
Ki [5]: > 100 µM

CCO/C(O)=C1\CN2CC(CCC2CN(C)C)C1=O (stereo in doubt; 6)
Ki [3]: 37 µM
Ki [4]: > 100 µM
